Data on 5 sequences can be found in US9243227B2, “Cytotoxic T lymphocyte” (Mie University, priority 2004, dated 2016).

The subject of test [1] is CD8-positive cells derived from immunized HHDA2402+/−β2m−/− mice. In words: IFN-gamma ELISPOT assay (mice), gene gun-immunized HLA-A2402 transgenic mice. The test is classed as cell-based, mouse. As to conditions: HHDA2402 mice immunized twice by gene gun with plasmid of the parent antigen; CD8-negative cells pulsed with peptide as target cells; FIG. 1A-1C. As to the method:
A DNA construct (HHDA2402) containing an HLA-A2402 leader sequence, human β2 microglobulin, HLA-A2402 α1 and α2 domains, an H-2D^b α3 transmembrane domain, and a cytoplasm domain was constructed. The resulting construct was cloned into an expression vector pcDNA 3.1 (manufactured by Invitrogen Corporation). The HHDA2402 construct (4 kb SalI-NotI fragment) was injected into fertilized eggs of C57BL/6 mice, to give HHDA2402-expressing mice. Then, the […] mice were bred with β2m−/− mice (manufactured by The Jackson Laboratory). The resulting HHDA2402+/−β2 m+/− were bred with β2m−/− mice to give HHDA2402+/−β2m−/− mice (referred to hereinafter as “HHDA2402 mice”).
Using Helios Gene Gun System (trade name, manufactured by Bio-Rad Laboratories, Inc.), gold particles coated with plasmid DNA were administered endoabdominally at a helium pressure of from 350 to 400 psi into HHDA2402 mice (6-to 8-week-old, female). The gold particles were prepared according to a manufacturer's manual. After 2 weeks, booster administration was carried out. After 1 week, spleen cells were collected.
One week after the final immunization, MACS system (trade name, manufactured by Mitlenyi Biotec) using CD8 alpha (Lyt 2) microbeads was used, to select CD8-positive T cells. The purity of the resulting T cell fraction analyzed by flow cytometry was 95% or more.
(§1) A 96-well nitrocellulose ELISPOT plate (trade name: MAHA 54510, manufactured by Millipore Corporation) was incubated overnight with 2 μg/milliliter anti-mouse IFN-gamma mAb (trade name: clone R4-6A2, manufactured by PharMingen Company) at 4° C., to coat the plate. Each well was washed with phosphate buffered physiologic saline (PBS). The well after washing was blocked by incubation at 37° C. for 2 hours in FCS-containing RPMI1640 medium.
Fresh CD8-positive cells (1×10^5 cells/well) derived from the immunized mice and CD8-negative cells (1×10^6 cells/well) pulsed with various peptides were seeded to each well and regulated so as to have a final volume of 200 μl. Then, the cells were cultured at 37° C. for 22 hours. Thereafter, the cells were washed sufficiently with PBS containing 0.05 wt % Tween™ 20 (referred to as “PBS-Tween”). Two hundreds microliters of 1.25 μg/milliliter biotinylated anti-mouse IFN-gamma mAb (trade name, manufactured by PharMingen Company) was added to the cells after washing, and the cells were then cultured overnight at 4° C. The cells thus obtained were washed with PBS-Tween. One hundred microliters of 1 μg/milliliter streptavidin-alkaline phosphatase conjugate (trade name, manufactured by Mabtech Ltd.) was added to the cells after washing. Thereafter, the resulting mixture was incubated at room temperature for 90 minutes, to carry out reaction. The resulting product was washed with PBS-Tween and then stained with an alkaline phosphatase conjugate substrate kit (trade name, manufactured by Bio-Rad Laboratories, Inc.). Thereafter, the product after staining was washed with distilled water to terminate the reaction. Then, the plate was dried and spots were counted.
HHDA2402 mice were immunized with an expression plasmid carrying EB virus-derived EBNA 3A gene by a gene gun. After immunized twice, spleen-derived CD8+ T cells were prepared. CD8-negative cells pulsed with the EBNA 3A246-254 peptide were used as target cells, to carry out ELISPOT assay. […]

For test [2], the system named is human bulk CTLs sensitized with mRNA-introduced autologous CD4+ PHA blast cells. Description: IFN-γ ELISPOT assay (human) with peptide-pulsed T2A24 cells. In kind it is cell-based. As to the method: On the 0th day, PHA (trade name: HA15, manufactured by Murex S.A.) was added to the medium in each well of the plate at a final concentration of 10 μg/milliliter. On the 3rd day, half amount of the medium was exchanged with the above medium containing IL-2 (20 U/milliliter) and IL-7 (40 ng/milliliter). Exchange of the medium was repeated every 3 days, whereby activated CD4-positive cells were obtained. The mRNA was introduced by electroporation into the activated CD4-positive cells at 14 to 28 days after culture was initiated. The resulting cells were used below as antigen-presenting cells.
MACS CD8 Microbeads (trade name, manufactured by Miltenyi Biotec) were used, to separate CD8+ T cells from PBMC. The number 5×10^5 cells of CD8+ T cells thus obtained were stimulated with radiation (30 Gy)-irradiated 1×10^5 mRNA-introduced CD4+ PHA blast cells in a 96-well round plate (manufactured by Nunc Corporation). After 7 days, the CD8+ T cells were stimulated again with radiation (30 Gy)-irradiated 1×10^5 mRNA-introduced CD4+ PHA blast cells, and then cultured in an IL-2 (20 IU/milliliter)-containing RPMI1640 medium for 7 days.
To amplify the sensitized CD8+ T cell group containing the antigen-specific CTLs, autologous LCLs (5×10^6 cells) into which the target antigen mRNA was introduced, autologous PBMCs (2.5×10^7 cells), and IL-2 (20 IU/milliliter) were added to the sensitized CD8+ T cell group. The resulting mixture was cultured in the absence of anti-CD3 antibody in a 25-milliliter flask (manufactured by Corning Incorporated).
A 96-well nitrocellulose ELISPOT plate (trade name: MAHA 54510, manufactured by Millipore Corporation) was coated by overnight incubation at 4° C. with 2 μg/milliliter antihuman IFN-γ mAb (trade name: 1-D1K). Each well was washed with PBS, and then blocked by incubation at 37° C. for 2 hours with RPMI1640 medium containing 10 wt % human AB serum. Effector cells (2×10^4 cells/well) and peptide-pulsed T2A24 cells (5×10^4 cells/well) were seeded to each well. […] Then, the plate was dried and spots were counted.

The test system of test [3] is CD8+ cells from HLA-A2402-positive healthy normal volunteers. In words: In vitro induction of human CTLs using CD8− PBMC pulsed with a peptide. The test is classed as cell-based. The note with it: one stimulation with CD8-negative PBMC pulsed with 10 μM peptide; 10 days after mixed lymphocyte reaction in vitro. How it is done: The number 1×10^7 of CD8-negative PBMC were pulsed with 10 μM peptide by incubation at room temperature for 1 hour and at 37° C. in 5% CO2 for 1 hour, in 200 μl RPMI1640 medium containing 25 mM Hepes, 10 wt % inactivated human AB-positive serum, 2 mM L-glutamine, 100 U/milliliter penicillin, and 100 μg/milliliter streptomycin. The resulting cells were used as antigen-presenting cells. The number 5×10^5 of CD8+ T cells that were separated were then stimulated by incubation for from 10 to 12 days with 1×10^6 cells of the peptide-pulsed CD8− PBMC. On Days 1, 4 and 7, half amount of the medium was exchanged with fresh one, and human IL-2 (20 IU/milliliter) and IL-7 (50 ng/milliliter) were added thereto. Culturing for induction was conducted in 200 μl RPMI1640 medium (containing 25 mM Hepes, 10 wt % inactivated human AB serum, 2 mM L-glutamine, 100 U/milliliter penicillin, 100 μg/milliliter streptomycin). […]
In staining, sensitized CD8+ T cells were reacted with 20 μg/milliliter tetramer at 37° C. for 30 minutes, and then reacted with a tricolor anti-CD8 monoclonal antibody (trade name, Caltag Laboratories, Burlingame, Calif., USA) on ice for 15 minutes. After washing, the stained cells were analyzed by flow cytometry (trade name: FACSCalibur, manufactured by Becton Dickinson, and Company). […]

The test system of test [4] is CD8-positive cells of wild-type C57BL6 mice. Description: IFN-gamma ELISPOT assay, same experiment in wild-type mice. The test is classed as cell-based, mouse. The note with it: same experiment as in HHDA2402 mice. As to the method: as §1
Fresh CD8-positive cells (1×10^5 cells/well) derived from the immunized mice and CD8-negative cells (1×10^6 cells/well) pulsed with various peptides were seeded to each well and regulated so as to have a final volume of 200 μl. Then, the cells were cultured at 37° C. for 22 hours. Thereafter, the cells were washed sufficiently with PBS containing 0.05 wt % Tween™ 20 (referred to as “PBS-Tween”). Two hundreds microliters of 1.25 μg/milliliter biotinylated anti-mouse IFN-gamma mAb (trade name, manufactured by PharMingen Company) was added to the cells after washing, and the cells were then cultured overnight at 4° C. The cells thus obtained were washed with PBS-Tween. One hundred microliters of 1 μg/milliliter streptavidin-alkaline phosphatase conjugate (trade name, manufactured by Mabtech Ltd.) was added to the cells after washing. […] Then, the plate was dried and spots were counted. […]

“LYATVIHDI (listed as Homo sapiens) [SAGE715-723]”: the “peptide-specific CTL response in ELISPOT assay (immunogenicity of peptide)” value in test [1] is “positive”. Besides, the “IFN-γ release in ELISPOT with peptide-pulsed T2A24 as target cell” value in test [2] (T2A24 pulsed with SAGE715-723, control HER263-71, FIG. 4C) is “IFN-γ was released”. For the same sequence, the “induction of peptide-specific bulk CTLs, IFN-γ ELISPOT” value in test [2] (stimulation twice with CD4+ blast cells with truncated SAGE mRNA, T2A24 pulsed with peptide vs control peptide, FIG. 4A) was “specific bulk CTLs were inducted”. Further, the “HLA-A2402+ healthy normal humans in whom SAGE715-723 HLA-A24 tetramer-positive T cells were detected” value in test [3] is recorded as “three out of six”.

As to “LYKPDSNEF (listed as Homo sapiens) [SAGE776-784]”, the “peptide-specific CTL response in ELISPOT assay (immunogenicity of peptide)” value in test [1] is “positive”. In test [4], the “peptide-specific CTL response in ELISPOT assay” value is listed as “positive”.

In the case of “NYKRCFPVI (listed as Homo sapiens) [MAGE-A4143-151]”, the “peptide-specific CTL response in ELISPOT assay (immunogenicity of peptide)” value in test [1] is recorded as “positive”. In addition, the “IFN-γ ELISPOT reaction to T2A24 cells pulsed with peptide” value in test [2] (MAGE-A4-specific bulk CTLs amplified with mRNA-introduced autologous LCL, autologous PBMC and IL-2, FIG. 2 panel B) is listed as “reaction specific”.

Consider “RYSIFFDYM (Epstein-Barr virus) [EBNA3A246-254, reference compound]”, for which, in test [1], the “peptide-specific CTL response in ELISPOT assay (immunogenicity of peptide)” value is recorded as “peptide-specific CTLs were detected”.

As to “VYGEPRKLL (listed as Homo sapiens) [MAGE-A4239-247]”, the “peptide-specific CTL response in ELISPOT assay (immunogenicity of peptide)” value in test [1] was “positive”. For the same sequence, the “peptide-specific CTL response in ELISPOT assay” value in test [4] was “positive”.
